In the supplement of paper PMC9663587:

Columns and labels:
[1] = compound: CC(=O)c1c(C)c2cnc(Nc3ccc(N4CCNCC4)cn3)nc2n(C2CCCC2)c1=O; assay: increase in dead-cell fraction, 72 h; higher = more death;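 note: breast cancer cell lines in 384-well plates, stained with Hoechst plus LIVE/DEAD far red dye and imaged, cells above an LDR intensity threshold counted dead, Hoechst-negative corpses included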
[2] = compound: CCN1CCN(Cc2ccc(Nc3ncc(F)c(-c4cc(F)c5nc(C)n(C(C)C)c5c4)n3)nc2)CC1; assay: as above
[3] = compound: CCOc1cc2ncc(C#N)c(Nc3ccc(OCc4ccccn4)c(Cl)c3)c2cc1NC(=O)/C=C/CN(C)C [Neratinib/HKI272]; assay: as above
[4] = compound: CCc1cnn2c(NCc3ccc[n+]([O-])c3)cc(N3CCCC[C@H]3CCO)nc12; assay: as above
[5] = compound: CC(=O)c1c(C)c2cnc(Nc3ccc(N4CCNCC4)cn3)nc2n(C2CCCC2)c1=O; assay: GR value, 72 h; higher = faster growth (1 = untreated, <0 = killing);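 note: breast cancer and non-malignant breast epithelial lines, nine half-log doses, viable cells counted by Hoechst and LIVE/DEAD dye imaging versus time-zero plates and DMSO controls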

HCC1500
increase in dead-cell fraction ([1]; 0.0003162 µM): -0.0019
increase in dead-cell fraction ([1]; 0.001 µM): 0.0086
increase in dead-cell fraction ([1]; 0.003162 µM): -0.0112
increase in dead-cell fraction ([1]; 0.01 µM): 0.0091
increase in dead-cell fraction ([1]; 0.03162 µM): 0.0038
increase in dead-cell fraction ([1]; 0.1 µM): 0.019
increase in dead-cell fraction ([1]; 0.3162 µM): 0.0086
increase in dead-cell fraction ([1]; 1 µM): 0.009
increase in dead-cell fraction ([1]; 3.162 µM): 0.0027
increase in dead-cell fraction ([2]; 0.001 µM): -0.0021
increase in dead-cell fraction ([2]; 0.003162 µM): -0.0174
increase in dead-cell fraction ([2]; 0.01 µM): -0.0129
increase in dead-cell fraction ([2]; 0.03162 µM): -0.0035
increase in dead-cell fraction ([2]; 0.1 µM): -0.0151
increase in dead-cell fraction ([2]; 0.3162 µM): -0.0201
increase in dead-cell fraction ([2]; 1 µM): -0.015
increase in dead-cell fraction ([2]; 3.162 µM): -0.0276
increase in dead-cell fraction ([2]; 10 µM): 0.0351
increase in dead-cell fraction ([3]; 0.0003162 µM): 0.0116
increase in dead-cell fraction ([3]; 0.001 µM): -0.0067
increase in dead-cell fraction ([3]; 0.003162 µM): 0.017
increase in dead-cell fraction ([3]; 0.01 µM): -0.0012
increase in dead-cell fraction ([3]; 0.03162 µM): 0.0316
increase in dead-cell fraction ([3]; 0.1 µM): 0.0224
increase in dead-cell fraction ([3]; 0.3162 µM): 0.0504
increase in dead-cell fraction ([3]; 1 µM): 0.0834
increase in dead-cell fraction ([3]; 3.162 µM): 0.331
increase in dead-cell fraction ([4]; 0.0001 µM): 0.0119
increase in dead-cell fraction ([4]; 0.0003162 µM): -0.0049
increase in dead-cell fraction ([4]; 0.001 µM): 0.0055
increase in dead-cell fraction ([4]; 0.003162 µM): 0.0001
increase in dead-cell fraction ([4]; 0.01 µM): 0.0467
increase in dead-cell fraction ([4]; 0.03162 µM): 0.285
increase in dead-cell fraction ([4]; 0.1 µM): 0.499
increase in dead-cell fraction ([4]; 0.3162 µM): 0.456
increase in dead-cell fraction ([4]; 1 µM): 0.476
GR value ([5]; 0.0003162 µM): 1.03 GR
GR value ([5]; 0.001 µM): 1.16 GR
GR value ([5]; 0.003162 µM): 1.19 GR
GR value ([5]; 0.01 µM): 1.11 GR
GR value ([5]; 0.03162 µM): 0.838 GR
GR value ([5]; 0.1 µM): 0.676 GR
GR value ([5]; 0.3162 µM): 0.581 GR
GR value ([5]; 1 µM): 0.709 GR
GR value ([5]; 3.162 µM): 0.592 GR

MDAMB157
increase in dead-cell fraction ([1]; 0.0003162 µM): 0.0033
increase in dead-cell fraction ([1]; 0.001 µM): 0.0064
increase in dead-cell fraction ([1]; 0.003162 µM): 0.0023
increase in dead-cell fraction ([1]; 0.01 µM): 0.0015
increase in dead-cell fraction ([1]; 0.03162 µM): 0.0013
increase in dead-cell fraction ([1]; 0.1 µM): 0.0006
increase in dead-cell fraction ([1]; 0.3162 µM): -0.002
increase in dead-cell fraction ([1]; 1 µM): -0.0042
increase in dead-cell fraction ([1]; 3.162 µM): -0.0011
increase in dead-cell fraction ([2]; 0.001 µM): -0.0027
increase in dead-cell fraction ([2]; 0.003162 µM): -0.0032
increase in dead-cell fraction ([2]; 0.01 µM): -0.0032
increase in dead-cell fraction ([2]; 0.03162 µM): 0.0011
increase in dead-cell fraction ([2]; 0.1 µM): 0.0051
increase in dead-cell fraction ([2]; 0.3162 µM): 0.0141
increase in dead-cell fraction ([2]; 1 µM): 0.0387
increase in dead-cell fraction ([2]; 3.162 µM): 0.0737
increase in dead-cell fraction ([2]; 10 µM): 0.48
increase in dead-cell fraction ([3]; 0.0003162 µM): 0.0012
increase in dead-cell fraction ([3]; 0.001 µM): 0.0066
increase in dead-cell fraction ([3]; 0.003162 µM): 0.004
increase in dead-cell fraction ([3]; 0.01 µM): -0.0008
increase in dead-cell fraction ([3]; 0.03162 µM): 0.0016
increase in dead-cell fraction ([3]; 0.1 µM): -0.0006
increase in dead-cell fraction ([3]; 0.3162 µM): 0.0073
increase in dead-cell fraction ([3]; 1 µM): -0.0005
increase in dead-cell fraction ([3]; 3.162 µM): 0.032
increase in dead-cell fraction ([4]; 0.0001 µM): 0
increase in dead-cell fraction ([4]; 0.0003162 µM): -0.0024
increase in dead-cell fraction ([4]; 0.001 µM): 0.0008
increase in dead-cell fraction ([4]; 0.003162 µM): 0.0027
increase in dead-cell fraction ([4]; 0.01 µM): 0.028
increase in dead-cell fraction ([4]; 0.03162 µM): 0.41
increase in dead-cell fraction ([4]; 0.1 µM): 0.781
increase in dead-cell fraction ([4]; 0.3162 µM): 0.834
increase in dead-cell fraction ([4]; 1 µM): 0.851
GR value ([5]; 0.0003162 µM): 0.945 GR
GR value ([5]; 0.001 µM): 0.976 GR
GR value ([5]; 0.003162 µM): 0.969 GR
GR value ([5]; 0.01 µM): 1.08 GR
GR value ([5]; 0.03162 µM): 1.02 GR
GR value ([5]; 0.1 µM): 1.02 GR
GR value ([5]; 0.3162 µM): 0.965 GR
GR value ([5]; 1 µM): 1.05 GR
GR value ([5]; 3.162 µM): 0.991 GR

HCC1428
increase in dead-cell fraction ([1]; 0.0003162 µM): 0.005
increase in dead-cell fraction ([1]; 0.001 µM): -0.0004
increase in dead-cell fraction ([1]; 0.003162 µM): -0.0052
increase in dead-cell fraction ([1]; 0.01 µM): 0.0068
increase in dead-cell fraction ([1]; 0.03162 µM): 0.0017
increase in dead-cell fraction ([1]; 0.1 µM): 0.0007
increase in dead-cell fraction ([1]; 0.3162 µM): 0.0117
increase in dead-cell fraction ([1]; 1 µM): 0.0083
increase in dead-cell fraction ([1]; 3.162 µM): 0.0097
increase in dead-cell fraction ([2]; 0.001 µM): -0.0074
increase in dead-cell fraction ([2]; 0.003162 µM): 0.0007
increase in dead-cell fraction ([2]; 0.01 µM): 0.0093
increase in dead-cell fraction ([2]; 0.03162 µM): 0.0115
increase in dead-cell fraction ([2]; 0.1 µM): 0.0154
increase in dead-cell fraction ([2]; 0.3162 µM): 0.0035
increase in dead-cell fraction ([2]; 1 µM): 0.0027
increase in dead-cell fraction ([2]; 3.162 µM): 0.0224
increase in dead-cell fraction ([2]; 10 µM): 0.0617
increase in dead-cell fraction ([3]; 0.0003162 µM): 0.0076
increase in dead-cell fraction ([3]; 0.001 µM): 0.0073
increase in dead-cell fraction ([3]; 0.003162 µM): 0.0021
increase in dead-cell fraction ([3]; 0.01 µM): -0.0004
increase in dead-cell fraction ([3]; 0.03162 µM): 0.0008
increase in dead-cell fraction ([3]; 0.1 µM): 0.0018
increase in dead-cell fraction ([3]; 0.3162 µM): 0.0002
increase in dead-cell fraction ([3]; 1 µM): 0.0203
increase in dead-cell fraction ([3]; 3.162 µM): 0.217
increase in dead-cell fraction ([4]; 0.0001 µM): 0.0044
increase in dead-cell fraction ([4]; 0.0003162 µM): 0.0006
increase in dead-cell fraction ([4]; 0.001 µM): 0.0016
increase in dead-cell fraction ([4]; 0.003162 µM): -0.0135
increase in dead-cell fraction ([4]; 0.01 µM): 0.0043
increase in dead-cell fraction ([4]; 0.03162 µM): 0.283
increase in dead-cell fraction ([4]; 0.1 µM): 0.562
increase in dead-cell fraction ([4]; 0.3162 µM): 0.64
increase in dead-cell fraction ([4]; 1 µM): 0.687
GR value ([5]; 0.0003162 µM): 1.05 GR
GR value ([5]; 0.001 µM): 1.07 GR
GR value ([5]; 0.003162 µM): 1.14 GR
GR value ([5]; 0.01 µM): 0.874 GR
GR value ([5]; 0.03162 µM): 0.729 GR
GR value ([5]; 0.1 µM): 0.434 GR
GR value ([5]; 0.3162 µM): 0.313 GR
GR value ([5]; 1 µM): 0.247 GR
GR value ([5]; 3.162 µM): 0.268 GR
